What was measured:
glucagon receptor (GCGR) = target: T1, glucagon receptor (GCGR) (Homo sapiens, UniProt P47871); assay: Glucagon cAMP inhibition assay (Cisbio cAMP Dynamic 2 HTRF); format: cell-based; conditions: GCGR overexpressed CHO-K1 cells or human primary hepatocytes (not specified); glucagon at EC50
T1 construct: expressed in transfected cells; host or cells: CHO-K1
Procedure: Glucagon eAMP Inhibition Assay
Downstream secondary messenger eAMP induced by glucagon was detected by Cisbio cAMP Dynamic 2 kit. Testing compounds were each prepared as a dimethyl sulfoxide (DMSO) solution at the concentration of 10 mM. To evaluate the potency of compounds in inhibiting the cAMP production, glucagon receptor (GCGR) overexpressed CHO-K1 cells or human primary hepatocytes were treated with compounds with a serial dilution. The cells were re-suspended in Hank's Balanced Salt solution (HBSS) contained 0.1% (w/v) bovine serum albumin and 800 nM 3-isobutyl-1-methylxanthine (IBMX) and seeded into low volume, 384 wells white plate. The diluted compounds were then added into the plate for 30 minutes pre-incubation where the final DMSO concentration was 1%. The cells were stimulated with glucagon at the concentration equaled to EC50 (an indicium of the concentration of a drag that gives half-maximal response) for 30 minutes at room temperature. After incubation, lysis buffer contain cAMP antibody and fluorescence acceptor were added into each well for additional 60 minutes incubation. Results were recorded by Molecular Devices SpectraMax Paradigm with the HTRF Detection Cartridges and the IC50 value of each compound in inhibiting the cAMP production was calculated with non-linear regression based on the amount of cAMP production.

GCGR = GCGR (Homo sapiens, UniProt P47871); assay: I125-glucagon binding assay (competition, GCGR membrane fractions); design: expressed in transfected cells; host or cells: CHO-K1; inhibition: dose or concentration left out as unconfirmed; conditions: for IC50: competition with I125-glucagon 0.0625 nM, membrane fractions from GCGR overexpressed CHO-K1 cells; for inhibition: read-out: percentage of inhibition (number in parenthesis in IC50 binding column)
Procedure: I^125-Glucagon Binding Assay
The binding affinity of each compound was evaluated by a competition assay with I^125-glucagon. GCGR membrane fractions were obtained from GCGR overexpressed CHO-K1 cells as a stock of 1 mg/ml concentration. To evaluate the IC50 of compounds binding to GCGR, GCGR membrane fractions were treated with compounds with a serial dilution. The membrane fractions were diluted to 7.5 microgram per well in 70 microliter assay buffer contained 50 mM Tris pH 7.4 and 0.5% (w/v) bovine serum albumin and added into 96 wells plate. The membrane fractions were then mixed with 10 microliter diluted compounds. After 5 minutes pre-incubation, 20 microliter I^125 labeled glucagon (Perkin Elmer) was added into each well at the final concentration of 0.0625 nM. The assay mixtures were incubated at 25° C. for 30 minutes and then transferred onto the Millipore Multiscreen GF/B Plate coated with 0.5% (w/v) Polyethyleneimine. The filter plate was washed with wash buffer contained 50 mM Tris pH 7.4 for 2 times, 300 microliter each time. The residual isotope was detected by Hidex CHAMELEON V micro-beta counter and the IC50 value of each compound binding to GCGR was calculated with non-linear regression.

T1 sequence (P47871 26-477, species assumed): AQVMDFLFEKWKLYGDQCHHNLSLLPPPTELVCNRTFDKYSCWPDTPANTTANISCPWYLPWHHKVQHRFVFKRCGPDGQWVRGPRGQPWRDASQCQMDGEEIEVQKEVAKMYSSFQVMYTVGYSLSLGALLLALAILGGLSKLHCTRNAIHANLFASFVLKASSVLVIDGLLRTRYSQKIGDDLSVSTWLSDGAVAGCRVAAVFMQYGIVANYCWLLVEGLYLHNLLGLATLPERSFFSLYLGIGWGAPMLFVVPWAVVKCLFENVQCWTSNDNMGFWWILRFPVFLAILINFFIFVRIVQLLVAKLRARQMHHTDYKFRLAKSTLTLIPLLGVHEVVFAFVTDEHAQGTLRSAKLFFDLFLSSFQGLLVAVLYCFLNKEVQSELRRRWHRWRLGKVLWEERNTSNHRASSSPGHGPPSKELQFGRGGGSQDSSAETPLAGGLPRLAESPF
GCGR, sequence (P47871 26-477, species assumed): as above

IC50 (glucagon receptor (GCGR)) [µM]	IC50 (GCGR) [µM]	inhibition (GCGR) [%]	Compound
0.24	2.9	–	CCOC(=O)CCNC(=O)c1ccc(NC(c2ccc(-c3noc(C(C)(C)C)n3)cc2)C(C)C)cc1 (stereo not drawn) [Compound 2-1, ethyl 3-(4-((1-(4-(5-(tert-butyl)-1,2,4-oxadiazol-3-yl)phenyl)-2-methylpropyl)amino)benzamido)propanoate]
0.878	0.171	–	CC(C)C(Nc1ccc(C(=O)NCCC(=O)O)cc1)c1ccc(-c2noc(C(C)(C)C)n2)cc1 (stereo not drawn) [Compound 2-2, 3-(4-((1-(4-(5-(tert-butyl)-1,2,4-oxadiazol-3-yl)phenyl)-2-methylpropyl)amino)benzamido)propanoic acid]
0.225	> 30	–	CCCCC(Nc1ccc(C(=O)NCCC(=O)OCC)cc1)c1ccc(-c2noc(C(C)(C)C)n2)cc1 (stereo not drawn) [Compound 2-3]
0.329	0.164	–	CCCCC(Nc1ccc(C(=O)NCCC(=O)O)cc1)c1ccc(-c2noc(C(C)(C)C)n2)cc1 (stereo not drawn) [Compound 2-4, 3-(4-((1-(4-(5-(tert-butyl)-1,2,4-oxadiazol-3-yl)phenyl)pentyl)amino)benzamido)propanoic acid]
0.395	6.25	63	CCOC(=O)CCNC(=O)c1ccc(NC(CC(C)C)c2ccc(-c3noc(C(C)(C)C)n3)cc2)cc1 (stereo not drawn) [Compound 2-5, ethyl 3-(4-((1-(4-(5-(tert-butyl)-1,2,4-oxadiazol-3-yl)phenyl)-3-methylbutyl)amino)benzamido)propanoate]
8.63	0.226	–	CC(C)CC(Nc1ccc(C(=O)NCCC(=O)O)cc1)c1ccc(-c2noc(C(C)(C)C)n2)cc1 (stereo not drawn) [Compound 2-6, 3-(4-((1-(4-(5-(tert-butyl)-1,2,4-oxadiazol-3-yl)phenyl)-3-methylbutyl)amino)benzamido)propanoic acid]
0.049	1.21	27	CCCCC(Nc1ccc(C(=O)NCCC(=O)OCC)cc1)c1ccc(-c2noc(-c3ccccc3)n2)cc1 (stereo not drawn) [Compound 2-7, ethyl 3-(4-((1-(4-(5-phenyl-1,2,4-oxadiazol-3-yl)phenyl)pentyl)amino)benzamido)propanoate]
0.934	0.07	–	CCCCC(Nc1ccc(C(=O)NCCC(=O)O)cc1)c1ccc(-c2noc(-c3ccccc3)n2)cc1 (stereo not drawn) [Compound 2-8, 3-(4-((1-(4-(5-phenyl-1,2,4-oxadiazol-3-yl)phenyl)pentyl)amino)benzamido)propanoic acid]
0.105	1.49	31	CCOC(=O)CCNC(=O)c1ccc(NC(CC(C)C)c2ccc(-c3noc(-c4ccccc4)n3)cc2)cc1 (stereo not drawn) [Compound 2-9, ethyl 3-(4-((3-methyl-1-(4-(5-phenyl-1,2,4-oxadiazol-3-yl)phenyl)butyl)amino)benzamido)propanoate]
0.959	0.124	–	CC(C)CC(Nc1ccc(C(=O)NCCC(=O)O)cc1)c1ccc(-c2noc(-c3ccccc3)n2)cc1 (stereo not drawn) [Compound 2-10, 3-(4-((3-methyl-1-(4-(5-phenyl-1,2,4-oxadiazol-3-yl)phenyl)butyl)amino)benzamido)propanoic acid]
0.18	3.06	38	CCOC(=O)CCNC(=O)c1ccc(NC(c2ccc(-c3noc(-c4cccs4)n3)cc2)C(C)C)cc1 (stereo not drawn) [Compound 2-11, ethyl 3-(4-((2-methyl-1-(4-(5-(thiophen-2-yl)-1,2,4-oxadiazol-3-yl)phenyl)propyl)amino)benzamido)propanoate]
0.504	0.354	–	CC(C)C(Nc1ccc(C(=O)NCCC(=O)O)cc1)c1ccc(-c2noc(-c3cccs3)n2)cc1 (stereo not drawn) [Compound 2-12, 3-(4-((2-methyl-1-(4-(5-(thiophen-2-yl)-1,2,4-oxadiazol-3-yl)phenyl)propyl)amino)benzamido)propanoic acid]
0.312	0.126	–	CCCCC(Nc1ccc(C(=O)NCCC(=O)O)cc1)c1ccc(-c2noc(-c3cccs3)n2)cc1 (stereo not drawn) [Compound 2-13, 3-(4-((1-(4-(5-(thiophen-2-yl)-1,2,4-oxadiazol-3-yl)phenyl)pentyl)amino)benzamido)propanoic acid]
1.39	0.274	–	CC(C)CC(Nc1ccc(C(=O)NCCC(=O)O)cc1)c1ccc(-c2noc(-c3cccs3)n2)cc1 (stereo not drawn) [Compound 2-14, 3-(4-((3-methyl-1-(4-(5-(thiophen-2-yl)-1,2,4-oxadiazol-3-yl)phenyl)butyl)amino)benzamido)propanoic acid]

The next lines start with the molecule.

Compound	IC50 (glucagon receptor (GCGR)) [µM]	IC50 (GCGR) [µM]	inhibition (GCGR) [%]
CCCC[C@H](Nc1ccc(C(=O)NCCC(=O)O)cc1)c1ccc(-c2nnc(C(F)(F)F)o2)cc1 [Compound 1-53, (S)-3-(4-((1-(4-(5-(trifluoromethyl)-1,3,4-oxadiazol-2-yl)phenyl)pentyl)amino)benzamido)propanoic acid]	1.87	0.351	–
CCCC[C@@H](Nc1ccc(C(=O)NCCC(=O)O)cc1)c1ccc(-c2nnc(C(F)(F)F)o2)cc1 [Compound 1-54, (R)-3-(4-((1-(4-(5-(trifluoromethyl)-1,3,4-oxadiazol-2-yl)phenyl)pentyl)amino)benzamido)propanoic acid]	3.67	3.07	–
CCOC(=O)CCNC(=O)c1ccc(N[C@H](c2ccc(-c3nnc(C(F)(F)F)o3)cc2)C(C)C)cc1 [Compound 1-55, ethyl (S)-3-(4-((2-methyl-1-(4-(5-(trifluoromethyl)-1,3,4-oxadiazol-2-yl)phenyl)propyl)amino)benzamido)propanoate]	1.36	> 30	–
CCOC(=O)CCNC(=O)c1ccc(N[C@@H](c2ccc(-c3nnc(C(F)(F)F)o3)cc2)C(C)C)cc1 [Compound 1-56, ethyl (R)-3-(4-((2-methyl-1-(4-(5-(trifluoromethyl)-1,3,4-oxadiazol-2-yl)phenyl)propyl)amino)benzamido)propanoate]	0.164	> 30	–
CC(C)[C@@H](Nc1ccc(C(=O)NCCC(=O)O)cc1)c1ccc(-c2nnc(C(F)(F)F)o2)cc1 [Compound 1-58, (R)-3-(4-((2-methyl-1-(4-(5-(trifluoromethyl)-1,3,4-oxadiazol-2-yl)phenyl)propyl)amino)benzamido)propanoic acid]	> 30	0.875	–
CCOC(=O)CCNC(=O)c1ccc(N[C@@H](CC(C)C)c2ccc(-c3nnc(-c4ccccc4)o3)cc2)cc1 [Compound 1-59, ethyl (S)-3-(4-((3-methyl-1-(4-(5-phenyl-1,3,4-oxadiazol-2-yl)phenyl)butyl)amino)benzamido)propanoate]	0.026	> 30	–
CCOC(=O)CCNC(=O)c1ccc(N[C@H](CC(C)C)c2ccc(-c3nnc(-c4ccccc4)o3)cc2)cc1 [Compound 1-60, ethyl (R)-3-(4-((3-methyl-1-(4-(5-phenyl-1,3,4-oxadiazol-2-yl)phenyl)butyl)amino)benzamido)propanoate]	0.114	> 30	–
CC(C)C[C@H](Nc1ccc(C(=O)NCCC(=O)O)cc1)c1ccc(-c2nnc(-c3ccccc3)o2)cc1 [Compound 1-61, (S)-3-(4-((3-methyl-1-(4-(5-phenyl-1,3,4-oxadiazol-2-yl)phenyl)butyl)amino)benzamido)propanoic acid]	3.25	0.201	–
CC(C)C[C@@H](Nc1ccc(C(=O)NCCC(=O)O)cc1)c1ccc(-c2nnc(-c3ccccc3)o2)cc1 [Compound 1-62, (R)-3-(4-((3-methyl-1-(4-(5-phenyl-1,3,4-oxadiazol-2-yl)phenyl)butyl)amino)benzamido)propanoic acid]	2.05	0.876	–
COC(=O)CCNC(=O)c1ccc(N[C@H](c2ccc(-c3nnc(-c4ccccc4)o3)cc2)C(C)C)cc1 [Compound 1-63, methyl (S)-3-(4-((2-methyl-1-(4-(5-phenyl-1,3,4-oxadiazol-2-yl)phenyl)propyl)amino)benzamido)propanoate]	0.028	1.53	–
CC(C)[C@H](Nc1ccc(C(=O)NCCS(=O)(=O)O)cc1)c1ccc(-c2nnc(-c3ccccc3)o2)cc1 [Compound 1-64, (S)-2-(4-((2-methyl-1-(4-(5-phenyl-1,3,4-oxadiazol-2-yl)phenyl)propyl)amino)benzamido)ethane-1-sulfonic acid]	> 30	0.101	–

From patent US10882837B2, “Amide compounds and use thereof” (ALPHALA CO., LTD., priority 2017, dated 2021)
